Reference: patent publication US20260207513A1, “PHARMACEUTICAL COMPOSITION OF SIPONIMOD” (Synthon B.V., priority 2022, published 2026)
Read-outs that look alike come from different tables or passages of the source.

Legend:
[1] = Water content w(H2O), Karl Fischer method; assay type: physicochemical
Text: […] The water content can be determined according to the Karl Fischer method as described in Ph. Eur. section 2.5.32. The determination is done by coulometry, preferably Mettler Toledo DL39 Karl Fisher Coulometer, or an equivalent apparatus, including a titration cell without diaphragm. Alternatively, the volumetric Karl Fisher method can be used to determine the water content. […] The water content can be achieved by choosing appropriate ingredients, drying, wetting or combination thereof.

[2] = Compatibility study, closed container: sum of impurities by HPLC
Protocol: Afterwards, the two components were blended in Turbula® at 72 rpm for 10 minutes. The resulting blend was compacted in the EKO eccentric compression machine in order to obtain a slug. The slug was milled manually, resulting into a milled blend. The milled blend (440 mg) was accurately weighed and placed in glass, opaque vial. […] The milled blend was then analyzed for a sum of area percent levels of impurities (A^imp) by HPLC. The HPLC was performed on Acquity UPLC BEH C8, 150×2.1 mm, dp=1.7 μm column. The detection with UV light at wavelength of 259 nm was used. The column was eluted, using a gradient method, with aqueous ammonium acetate (10 mM, pH 5.5) and acetonitrile at column temperature of 50° C. for 30 min.

[3] = Excipients - dry 0.5% ≤ w(H2O) < 5%
[4] = Excipients - hydrated w(H2O) ≥ 5%
[5] = Excipients - substantially dry w(H2O) < 0.5%
[6] = siponimod adipic acid co-crystal:excipient 1:10 (w/w), excipients substantially dry w(H2O) < 0.5%, closed container, 1 month, 40° C., RH 75%

Row | w (H2O) [1, 5] | A^imp (1 m), sum of area percent levels of impurities [2, 6] | Compound | other results
1 |  |  | OC[C@@H](O)[C@@H](O)[C@H](O)[C@H](O)CO [Mannitol] | w (H2O) [1, 3]: 0.6%
2 |  |  | OC[C@H]1O[C@@H](O[C@H]2[C@H](O)[C@@H](O)C(O)O[C@@H]2CO)[C@H](O)[C@@H](O)[C@H]1O (stereo partly shown) [Lactose] | w (H2O) [1, 4]: 5.0%
3 | 0.2% | 0.12% | CCCCCCCCCCCCCCCCCC(=O)OCC(O)CO (stereo not shown) [Glycerol monostearate] | 
4 |  |  | Isomalt | w (H2O) [1, 3]: 2.9%; w (H2O) [1, 4]: 5.0%
5 | 0.3% | 0.05% | CCCCCCCCCCCCCCCCCCO [Stearyl alcohol] | 
6 |  |  | CCc1cc(/C(C)=N/OCc2ccc(C3CCCCC3)c(C(F)(F)F)c2)ccc1CN1CC(C(=O)O)C1 [Siponimod adipic acid co-crystal] | w (H2O) ([1]; Active ingredients): 0.2%; A^imp (1 m), sum of area percent levels of impurities ([2]; Active ingredients, closed container, t = 1 month, 40° C., RH 75%): 0.09%
7 | 0.1% | 0.08% | CCCCCCCCCCCCCCCCCCCCCC(=O)OCC(CO)OC(=O)CCCCCCCCCCCCCCCCCCCCC (stereo not shown) [Glycerol dibehenate] | 
8 | 0.4% | 0.08% | CCCCCCCCCCCCCCCCCCOC(=O)/C=C/C(=O)[O-].[Na+] [Sodium stearyl fumarate] | 

Row | Compound | w (H2O) [1, 5] | A^imp (1 m), sum of area percent levels of impurities [2, 6] | other results
9 | Magnesium stearate | 0.2% |  | A^imp (1 m), sum of area percent levels of impurities [2]: 0.16%
